For this assay, the system named is metastatic and/or recurrent breast cancer. In words: Phase III clinical trial, survival of patients treated with DPPE/doxorubicin versus doxorubicin alone. Type of assay: in vivo, human. The procedure:
In the treatment of metastatic and/or recurrent breast cancer, the diphenyl compound preferably is used in an amount of about 3 to about 10 mg/kg of patient administered intravenously over a period of about 30 to about 90 minutes prior to administration of the chemotherapeutic agent(s) and continuing for the period of administration of the chemotherapy agent(s). In the specific Phase III clinical trial described herein, there was employed 5.3 mg/kg of DPPE in the form of the base (equivalent to 6 mg/kg of DPPE in the form of its hydrochloride), administered intravenously as an aqueous solution thereof over 80 minutes, with the last twenty minutes being accompanied by infusion of the specific chemotherapeutic agent.
The anthracycline chemotherapy agent active in breast cancer which is employed herein preferably is used in a total amount of about 50 to about 75 mg/M^2 of patient consistent with the identity of the anthracycline chemotherapy agent(s). In the specific Phase III clinical trial described herein, there was employed 60 mg/M^2 of doxorubicin administered over the last 20 minutes of infusion of the DPPE solution. […]
The survival time of patients was determined in relation to ER status for patients receiving the DPPE/DOX combination and DOX alone. […]
In addition, the survival times of patients was determined in relation to disease-free intervals for patients receiving the DPPE/DOX combination and DOX alone.
The survival times of patients was determined in relation to the number of cycles of treatment for patients receiving the DPPE/DOX combination and DOX alone.
The survival time for patients also was determined for those patients with metastatic breast cancer receiving no prior chemotherapy treatment in relation to those also had received prior chemotherapy treatment and for patients that had received no previous treatment type (i.e. no prior chemotherapy, radiotherapy and/or hormone treatment). The survival times were determined for patients receiving the DPPE/DOX combination and DOX alone.

Consider `COc1cccc2c1C(=O)c1c(O)c3c(c(O)c1C2=O)C[C@@](O)(C(=O)CO)C[C@@H]3O[C@H]1C[C@H](N)[C@H](O)[C@H](C)O1` [DOX, doxorubicin], for which the median overall survival was determined as 16.2 months (patients with metastatic disease who had no previous chemotherapy, DPPE 5.3 mg/kg iv over 80 min, doxorubicin 60 mg/M^2 over last 20 min) and 15 months (patients with metastatic disease who had no previous treatment (chemotherapy, radiotherapy and/or hormone treatment)).

For the compound `CCN(CC)CCOc1ccc(Cc2ccccc2)cc1` [DPPE, N,N-diethyl-2-[4-(phenylmethyl)-phenoxy]ethanamine], for the setting “patients with aggressive breast cancer, pretreatment with DPPE before doxorubicin”, the “increase in overall survival compared to the control group” value is “about 50%”.

These data come from patent US20050119263A1, “Treatment of breast cancer” (priority 2001, published 2005).
